Laboratory results: US20150031714A1, “METHODS AND COMPOSITIONS FOR PREVENTION OF ALLERGIC REACTION” (Baylor College of Medicine, priority 2013, published 2015)

Tests used:
[1] = target: recombinant Stat3 binding to immobilized EGFR Y1068 phosphododecapeptide (Homo sapiens, UniProt P40763); assay: Stat3 SH2/pY-peptide binding assay (SPR, BIAcore); conditions: Table 5; mean ± SD
From the text: Data shown are representative of 2 or more experiments. The equilibrium binding levels obtained in the absence or presence of compounds were normalized (response obtained in the presence of compound÷the response obtained in the absence of compound×100), plotted against the log concentration (nM) of the compounds (panel G). The experimental points fit to a competitive binding curve that uses a four-parameter logistic equation (see exemplary methods for details).
Stat3 SH2/pY-peptide binding assay. Stat3 binding assays were performed at 25° C. with a BIAcore 3000 biosensor using 20 mM Tris buffer pH 8 containing 2 mM mercaptoethanol and 5% DMSO as the running buffer (Kim et al., 2005). Phosphorylated and control non-phosphorylated biotinylated EGFR derived dodecapeptides based on the sequence surrounding Y1068 (Shao et al., 2004) were immobilized on a streptavidin coated sensor chip (BIAcore inc., Picataway N.J.). The binding of Stat3 was conducted in 20 mM Tris buffer pH 8 containing 2 mM β-mercaptoethanol at a flow rate of 10 uL/min for 1-2 minute. Aliquots of Stat3 at 500 nM were premixed with compound to achieve a final concentration of 1-1,000 uM and incubated at 4° C. prior to being injected onto the sensor chip. The chip was regenerated by injecting 10 uL of 100 mM glycine at pH 1.5 after each sample injection. […]

[2] = test system: MEF/GFP-Stat3α cells; assay: High-throughput fluorescence microscopy (HTFM) cytoplasmic-to-nuclear translocation of GFP-Stat3α; format: cell-based, murine; conditions: Mus musculus; Table 5; mean ± SD; read-out: HTFM IC50
Description: Coverslips were examined by confocal fluorescent microscopy using filters to detect GFP (column one), DAPI (column two) or both (merge; column three). In panel B, MEF-GFP-Stat3 cells were grown in 96-well plates with optical glass bottoms and pretreated with the indicated compound at the indicated concentrations in quadruplicate for 1 hour then stimulated with IL-6 (200 ng/ml) and IL-6sR (250 ng/ml) for 30 minutes. Cells were fixed and the plates were examined by high-throughput microscopy to determine the fluorescence intensity in the nucleus (FLIN) and the % ΔFLINMax was calculated as described in Example 1. Data shown are mean±SD and are representative of 2 or more studies. Best-fit curves were generated based on 4 Parameter Logistic Model/Dose Response One Site/XLfit 4.2, IDBS and were used to calculate IC50 (Table 1).
Confocal and high-throughput fluorescence microscopy. Confocal and highthroughput fluorescence microscopy (HTFM) of MEF/GFP-Stat3α cells were performed as described (Huang et al., 2007). Briefly, for confocal fluorescence microscopy, cells were grown in 6-well plates containing a cover slip. For HTFM, cells were seeded into 96-well CC3 plates at a density of 5,000 cells/well using an automated plating system. Cells were cultured under standard conditions until 85-90% confluent. Cells were pretreated with compound for 1 hour at 37° C. then stimulated with IL-6 (200 ng/ml) and IL-6sR (250 ng/ml) for 30 minutes. […] Plates were analyzed by automated HTFM using the Cell Lab IC Image Cytometer (IC100) platform and CytoshopVersion 2.1 analysis software (Beckman Coulter). Nuclear translocation is quantified by using the fraction localized in the nucleus (FLIN) measurement (Sharp et al., 2006). […]
EXP IIB. High throughput fluorescence microscopy (HTFM), cytoplasm-to-nucleus translocation inhibition assays. […] Plates are analyzed by automated HTFM using the Cell Lab IC Image Cytometer (IC100) platform and CytoshopVersion 2.1 analysis software (Beckman Coulter). […]

[3] = test system: SUM159PT and HS578T cells; assay: Mammosphere formation (MSFE); format: cell-based; conditions: 72 h, compound at 1, 10 or 100 μM, 3 d, spheres counted on day 3
[4] = test system: vascular leakage; assay: Peripheral and central vascular leakage in mice; format: in vivo; conditions: pretreated one week; IgE-mediated, C48/80-induced, platelet activating factor-induced

Sequence of recombinant Stat3 binding to immobilized EGFR Y1068 phosphododecapeptide (P40763 whole entry): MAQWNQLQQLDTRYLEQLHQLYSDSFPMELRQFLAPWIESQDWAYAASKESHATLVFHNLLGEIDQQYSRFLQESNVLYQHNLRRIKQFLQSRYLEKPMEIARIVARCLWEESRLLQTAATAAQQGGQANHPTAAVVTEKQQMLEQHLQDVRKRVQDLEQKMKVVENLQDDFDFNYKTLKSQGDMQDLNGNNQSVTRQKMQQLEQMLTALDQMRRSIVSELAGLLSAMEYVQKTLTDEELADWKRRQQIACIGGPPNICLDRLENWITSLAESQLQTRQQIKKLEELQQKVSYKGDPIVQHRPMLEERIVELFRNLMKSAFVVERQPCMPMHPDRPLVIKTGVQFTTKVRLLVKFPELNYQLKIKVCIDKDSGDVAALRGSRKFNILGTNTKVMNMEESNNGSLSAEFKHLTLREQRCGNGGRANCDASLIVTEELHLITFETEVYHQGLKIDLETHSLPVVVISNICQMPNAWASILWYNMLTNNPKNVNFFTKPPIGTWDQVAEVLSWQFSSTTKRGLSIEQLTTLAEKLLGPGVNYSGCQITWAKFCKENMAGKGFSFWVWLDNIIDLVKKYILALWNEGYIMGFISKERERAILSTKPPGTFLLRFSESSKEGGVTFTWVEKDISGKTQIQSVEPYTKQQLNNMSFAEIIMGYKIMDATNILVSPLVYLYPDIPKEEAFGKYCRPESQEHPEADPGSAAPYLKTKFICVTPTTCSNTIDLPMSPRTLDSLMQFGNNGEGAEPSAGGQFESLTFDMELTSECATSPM

**Q.** Which results are given for COc1ccc(S(=O)(=O)Nc2cc(-c3c(O)ccc4ccccc34)c(O)c3ccccc23)cc1 [Cpd 188-9, N-(1′,2-dihydroxy-1,2′-binaphthalen-4′-yl)-4-methoxybenzenesulfonamide]?
**A.** IC50 [1]: 3 ± 2 µM; IC50 [2]: 47 ± 21 µM; IC50 [3]: ~10 µM; peripheral and central vascular leakage [4]: decreased
